From paper PMC6990646 (ACS Omega, 2020)
≈ marks a conversion by molar mass, not a printed value. Where “and” joins values, the source holds several entries; their conditions need not be identical. Equal values may be shown once.

Columns and labels:
[1] = tested on: HAV HM175; test: Plaque reduction assay against HAV HM175; assay type: cell-based, hepatitis A virus HM 175; conditions: hepatitis A virus HM 175, plaque reduction
[2] = tested on: ED-43/SG-Feo (VYG) replicon of HCV genotype 4a; test: Antiviral bioassay against ED-43/SG-Feo; assay type: cell-based
[3] = tested on: HAdV7; test: Plaque reduction assay against adenovirus 7; assay type: cell-based, human adenovirus type 7
[4] = tested on: Vero cell line; test: Cytotoxicity test on Vero cell line; assay type: cell-based; conditions: herpes simplex virus table; host cells Vero
[5] = tested on: FRHK-4 cell line; test: Cytotoxicity test on FRHK-4 cell line; assay type: cell-based; conditions: hepatitis A virus HM 175 columns; host cells FRHK4
[6] = tested on: Huh 7.5 cell line; test: Cytotoxicity test on Huh 7.5 cell line; assay type: cell-based; conditions: HCVcc genotype 4 columns; host cells Huh 7.5
[7] = tested on: Hep2 cell line; test: Cytotoxicity test on Hep2 cell line; assay type: cell-based; conditions: adenovirus type 7 columns; host cells Hep-2
[8] = tested on: HSV-1

SMILES: O=C(CNc1nc(NS(=O)(=O)c2ccccc2)ncc1-c1nc2ccccc2s1)c1ccc(Br)cc1 [9a, N-(5-(Benzo[d]thiazol-2-yl)-4-((2-(4-bromophenyl)-2-oxoethyl)amino)pyrimidin-2-yl)benzenesulfonamide]
- IC50 [1]: 0.078 µg/µL (≈ 134 µM)
- IC50 ([2]; HCVcc genotype 4): 0.12 µg/µL (≈ 207 µM)
- mean % of reduction, HCVcc genotype 4 ([2]; nontoxic dose of compound): 50 ± 0.9%
- IC50 ([3]; adenovirus type 7, plaque reduction): 0.12 µg/µL (≈ 207 µM)
- mean % of reduction, adenovirus type 7 ([3]; nontoxic dose of compound): 50 ± 0.9%
- CC50 [4]: 0.27 µg/µL (≈ 465 µM)
- CC50 [5]: 0.24 µg/µL (≈ 413 µM)
- CC50 [6]: 0.25 µg/µL (≈ 431 µM)
- CC50 [7]: 0.26 µg/µL (≈ 448 µM)
- IC50 ([8]; herpes simplex virus, plaque reduction): 0.063 µg/µL (≈ 109 µM)
- mean % of reduction, herpes simplex virus ([8]; nontoxic dose of compound): 90% and 90 ± 2.5%
